pIC50, pKd: −log10 of the molar value. “Also recorded” adds a separate entry of the source.
Tests used:
[1] = test system: MEK1/2 interaction with GIT1, Raf, and ERK; experiment: Co-IP anti-MEK1/2 in HepG2 and RKO cells; type: cell-based; conditions: 10 μM, 24 hours
Excerpt: GIT1-MAT2B scaffold complex sequesters and activates RAS/RAF/MEK/ERK signaling.

GIT1 = GIT1 dependence of cyclin B1 and EdU effects; type: cell-based
MEK and ERK activity [2] = experiment: Western blot ERK and MEK activity in AML12 cells; type: cell-based; conditions: 2-10 μM, 24 hours
AML12 cells [3] = experiment: Cell cycle flow cytometry AML12; type: cell-based; conditions: 1-5 μM, 24 hours
RKO cells [4] = experiment: MTT assay in RKO cells; type: cell-based; conditions: Homo sapiens
Protocol: (§1) The inventors identified nine inhibitors and perfomed an EdU assay after treating non-malignant (HEK293, AML12) and malignant (HepG2, MzChA-1, HT-29, RKO) cells with varying concentrations of GIT1 inhibitor for 24 hours (results are mean±SE from 3 independent experiments done in duplicates, *p<0.05 vs. DMSO). An MTT assay was also performed after treating primary human and mouse hepatocytes and liver and colon cancer cells with varying concentrations of GIT1 inhibitor for 24 hours (results are mean±SE from 3 independent experiments done in duplicates, *p<0.05 vs. DMSO). […] Percoll may be used to remove dead human hepatocytes.

RKO cells [5] = experiment: Annexin V-FITC/propidium iodide assay RKO; type: cell-based, human; conditions: 5 μM, 24-48 hours
Protocol: (§2) FIG. 8 depicts, in accordance with various embodiments of the invention, results of an annexin V-FITC/propidium iodide binding assay performed in human and mouse hepatocytes, AML12, HEK293, HepG2, and RKO cells after treatment with 5 μM of a GIT1 inhibitor or DMSO for 24-48 hours (results are shown as mean±SE from at least 3 experiments. *p<0.05 vs. DMSO).
(§3) An annexin V-FITC/propidium iodide (PI) binding assay was performed with flow cytometry. […] Both G2/M arrest and cell death are mechanisms by which compound C3 inhibits cancer cells' growth.

Toxicity in C57/BL6 mice = conditions: mouse, in vivo
HEK293 cells = experiment: Annexin V-FITC/propidium iodide assay HEK293; type: cell-based; conditions: 5 μM, 24-48 hours
Protocol: as §2, §3

cyclin B1/CDK1 = experiment: Cyclin B1/CDK1 activation; type: cell-based
Protocol: HepG2 and RKO cells were treated with 5 μM of compound C3 for 24 hours, followed by co-IP with anti-CDK1 antibody and western blots. […] The densitometric changes are from at least 3 independent experiments in mean±SE; *p<0.05 vs. DMSO. Binding of cyclin BI to CDK1 initiates conformational changes allowing CDK1 to alter its phosphorylation status and to become an active kinase.

RKO cells [6] = experiment: Migration assay RKO; type: cell-based, human; conditions: 1 μM, 24 hours
RKO cells [7] = experiment: Clonogenic assay RKO; type: cell-based, human; conditions: 1 μM, 24 hours then drug free medium 10-20 days; dose dependent
Protocol: (§4) RKO, HepG2, and AML12 cells were treated with 1-10 μM compound C3 for 24 hours and maintained in drug free medium for 10-20 days.

GIT1-GFP = GIT1-GFP (Homo sapiens, UniProt Q9Y2X7); experiment: MST binding to GIT1-GFP
GIT1-GFP, sequence (Q9Y2X7 1-770 isoform Q9Y2X7-3): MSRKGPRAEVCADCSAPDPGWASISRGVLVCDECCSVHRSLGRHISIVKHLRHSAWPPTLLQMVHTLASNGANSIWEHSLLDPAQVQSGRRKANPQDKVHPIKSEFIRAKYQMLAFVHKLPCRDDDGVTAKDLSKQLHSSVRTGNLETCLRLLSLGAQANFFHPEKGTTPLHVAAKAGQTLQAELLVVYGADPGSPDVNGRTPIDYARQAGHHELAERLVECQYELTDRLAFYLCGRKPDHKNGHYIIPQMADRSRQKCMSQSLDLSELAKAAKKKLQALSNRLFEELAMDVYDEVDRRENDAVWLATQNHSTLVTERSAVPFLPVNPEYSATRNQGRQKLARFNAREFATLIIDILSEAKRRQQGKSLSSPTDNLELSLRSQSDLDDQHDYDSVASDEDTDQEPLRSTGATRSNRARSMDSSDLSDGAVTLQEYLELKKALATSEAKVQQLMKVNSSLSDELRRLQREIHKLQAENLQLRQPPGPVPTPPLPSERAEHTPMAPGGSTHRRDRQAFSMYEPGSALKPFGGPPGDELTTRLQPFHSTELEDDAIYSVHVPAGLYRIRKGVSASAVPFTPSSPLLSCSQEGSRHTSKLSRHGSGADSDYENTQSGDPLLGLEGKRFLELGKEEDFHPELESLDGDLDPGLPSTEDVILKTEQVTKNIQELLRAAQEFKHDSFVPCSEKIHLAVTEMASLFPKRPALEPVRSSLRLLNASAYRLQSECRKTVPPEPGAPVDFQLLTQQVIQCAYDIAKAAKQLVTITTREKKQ

mouse hepatocytes = experiment: Annexin V-FITC/propidium iodide assay mouse hepatocytes; type: cell-based; conditions: 5 μM, 24-48 hours
Protocol: as §2, §3

HepG2 cells [8] = experiment: MTT assay in HepG2 cells; type: cell-based; conditions: Homo sapiens
Protocol: as §1

GIT2-GFP = GIT2-GFP (Homo sapiens, UniProt Q14161); experiment: MST binding to GIT2-GFP
GIT2-GFP, sequence (Q14161 whole entry): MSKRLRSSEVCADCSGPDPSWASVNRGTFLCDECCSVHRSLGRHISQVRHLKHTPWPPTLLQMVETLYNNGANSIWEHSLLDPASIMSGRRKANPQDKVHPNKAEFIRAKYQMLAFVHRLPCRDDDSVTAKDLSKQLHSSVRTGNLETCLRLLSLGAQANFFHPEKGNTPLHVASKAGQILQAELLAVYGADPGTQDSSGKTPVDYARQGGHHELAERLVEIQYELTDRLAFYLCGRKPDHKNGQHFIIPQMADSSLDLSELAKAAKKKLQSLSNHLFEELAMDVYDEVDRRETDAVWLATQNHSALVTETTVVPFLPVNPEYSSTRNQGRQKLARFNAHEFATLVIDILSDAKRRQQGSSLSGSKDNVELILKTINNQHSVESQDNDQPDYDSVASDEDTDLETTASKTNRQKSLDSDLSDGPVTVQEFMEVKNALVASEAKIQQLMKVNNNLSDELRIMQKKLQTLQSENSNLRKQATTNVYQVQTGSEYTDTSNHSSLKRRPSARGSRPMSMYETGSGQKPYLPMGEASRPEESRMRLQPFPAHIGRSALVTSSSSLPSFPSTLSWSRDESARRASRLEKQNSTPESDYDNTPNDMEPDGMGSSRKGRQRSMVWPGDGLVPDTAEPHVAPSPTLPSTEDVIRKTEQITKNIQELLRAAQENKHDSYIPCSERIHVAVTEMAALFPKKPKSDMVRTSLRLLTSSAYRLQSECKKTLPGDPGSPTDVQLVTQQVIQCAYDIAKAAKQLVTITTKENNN

[9] = test system: malignant (HepG2, MzChA-1, HT-29, RKO) cells; experiment: EdU/MTT growth assay in cancer cells; type: cell-based
Protocol: as §1

AML12 cells [10] = experiment: Annexin V-FITC/propidium iodide assay AML12; type: cell-based; conditions: 5 μM, 24-48 hours
Protocol: as §2, §3

AML12 cells [11] = experiment: Clonogenic assay AML12; type: cell-based; conditions: 1-10 μM, 24 hours then drug free medium 10-20 days
Protocol: as §4

HepG2 cells [12] = experiment: Annexin V-FITC/propidium iodide assay HepG2; type: cell-based; conditions: 5 μM, 24-48 hours
Protocol: as §2, §3

MC38 cells = experiment: MC38 CRC liver metastasis (CRLM) model in immune competent mice; type: in vivo
Protocol: FIG. 40A-FIG. 40E depicts, in accordance with various embodiments of the invention, compound C3 inhibits CRC liver metastasis in immune competent mice. MC38 cells (2.5×10^5) stably expressing luciferase where injected intrasplenically followed by splenectomy. 7 days later compound C3 (20 mg/kg on day 1 sinc MC38 grows rapidly, then 15 mg/kg daily×3 days, rest for 2 days, then 15 mg/kg×2 days) or DMSO were given ip. Small animal imaging (FIG. 40A). H&E of tumors (FIG. 40B). Luciferase intensity at various time points (FIG. 40C). Gross pictures of the livers at day 9 (FIG. 40D), ALT and AST levels after above, or compound C3 (15 mg/kg/d for 21 days), *p<0.05 vs. DMSO (FIG. 40E).
Compound C3 powder was dissolved in pure DMSO at 50 mg/ml, as a stock store in-80 °C. Stock solution was dissolved in 200 μl 0.9% saline to reach 15 mg/kg. For control group, DMSO was dissolved in 200 μl saline to achieve a concentration of DMSO in saline of 4.5%. MC38 cells (2.5×105) stably expressing luciferase were injected intrasplenically followed by splenectomy (CRLM model). Seven days later, Compound C3 (20 mg/kg on day 1, then 15 mg/kg daily ×3 days, rest for 2 days, then 15 mg/kg×2 days) or DMSO were administered ip.

MEK and ERK activity [13] = experiment: Western blot ERK and MEK activity in HepG2 cells; type: cell-based; conditions: 2-10 μM, 24 hours
Protocol: (§5) Treatment of human hepatocytes with 10 μM compound C3 had no effect on MEK or ERK activity.

MEK and ERK activity [14] = experiment: MEK and ERK activity in human hepatocytes; type: cell-based; conditions: 10 μM
Protocol: as §5

With `CC1(C)Cc2nc3sc4c(=O)n(CC(=O)NCc5ccco5)cnc4c3cc2CO1` [Compound C3, 2-(8,8-Dimethyl-4-oxo-7,10-dihydro-8H-pyrano[3″,4″: 5′,6′]pyrido[3′,2′: 4,5]thieno[3,2-d]pyrimidin-3 (4H)-yl)-N-(2-furylmethyl) acetamide] the RAF/MEK/ERK recruitment [1] was “reduced RAF/MEK/ERK recruitment”, the “GIT1 dependence of lower EdU (growth)” value (GIT1) was “lower EdU requires GIT1” and the “GIT1 dependence of increase in cyclin B1 level / stabilization” value (GIT1; n=3) was “GIT1 dependent; also recorded: increase in cyclin BI level requires GIT1”. The “ERK and MEK activities, AML12” value (MEK and ERK activity [2]) was “not in AML12 cells”, the “G2/M arrest, AML12” value (AML12 cells [3]) was “did not occur” and the pIC50 (RKO cells [4]) was ~4.70. The “apoptosis, RKO” value (RKO cells [5]) was “significant apoptosis”, the “toxicity in C57/BL6 mice” value (Toxicity in C57/BL6 mice) was “no toxicity” and the “cell death, HEK293” value (HEK293 cells) was “does not induce cell death”. The “cyclin B1/CDK1 activation” value (cyclin B1/CDK1) was “activated cyclin B1/CDK1”, the “migration of RKO cells” value (RKO cells [6]) was “significant inhibition in migration” and the “clonogenic potential, RKO” value (RKO cells [7]) was “inhibited the clonogenic potential”. For the same compound, the pKd (GIT1-GFP) was 5.21, the “binding to GIT1-GFP” value (GIT1-GFP) was “binds to GIT1-GFP” and the “cell death, mouse hepatocytes” value (mouse hepatocytes) was “does not induce cell death”. The pIC50 (HepG2 cells [8]) was ~4.70, the “binding to GIT2-GFP” value (GIT2-GFP) was “not GIT2-GFP” and the “apoptosis in cancer cells (FIG. 33)” value [9] was “slight increase in apoptosis”. For the same compound, the “cytotoxicity in cancer cells” value ([9]; 10 μM, 24 hours) was “cytotoxic in cancer cells at 10 μM”, the growth inhibitory effect ([9]; 24 hours, among nine inhibitors) was “most potent growth inhibitory effect” and the “cell death, AML12” value (AML12 cells [10]) was “does not induce cell death”. For the same compound, the “clonogenic potential, AML12” value (AML12 cells [11]) was “no effect on clonogenic potential”, the “apoptosis, HepG2” value (HepG2 cells [12]) was “significant apoptosis” and the “necrosis, HepG2” value (HepG2 cells [12]) was “significant necrosis”. The “tumor growth, liver metastasis” value (MC38 cells; ip 20 mg/kg day 1, 15 mg/kg daily ×3 days, rest 2 days, 15 mg/kg×2 days) was “Tumor growth was inhibited”, the toxicity (MC38 cells; ip 20 mg/kg day 1, then 15 mg/kg, ALT and AST) was “without toxicity” and the “ERK and MEK activities, HepG2” value (MEK and ERK activity [13]) was “lower”. The “MEK or ERK activity, human hepatocytes” value (MEK and ERK activity [14]) was “no effect”.

— patent US20260356849A1, “COMPOUNDS AND METHODS FOR TREATING CANCERS” (CEDARS-SINAI MEDICAL CENTER, priority 2022, published 2026)
